In patent US9610291B2, “Treatment of respiratory depression” (NUMEDICUS LIMITED, priority 2012, dated 2017):

Assays:
conscious rats = assay: Opiate-induced respiratory depression; whole-body plethysmography in conscious rats; format: in vivo; conditions: for increase in the respiratory activity: before morphine
Procedure: Whole-body plethysmography is used to assess respiratory rate (fR, in breaths per minute) and tidal volume (VT, in microliters per gram) in conscious rats. Animals are placed in a recording chamber (˜700 ml) flushed continuously with a humidified mixture of 79% nitrogen and 21% oxygen (temperature 22-24° C.). Level of carbon dioxide (CO2) in the chamber is monitored online using a fast-response CO2 analyser. Animals are allowed ˜40 min to acclimatize to the chamber environment at normoxia-normocapnia (21% oxygen, 79% nitrogen and <0.3% CO2) before measurements of baseline ventilation are taken.
Respiratory depression is induced in conscious rats by intramuscular (10 mg/kg) administration of morphine.
Data are acquired using Power1401 interface, saved and analyzed off-line using Spike2 software (CED Limited, Cambridge, UK).
Parameters measured included fR—respiratory rate (in breaths per minute); VT—tidal volume (in microliters per gram of body weight); VE—minute ventilation fR×VT (in microliters per gram of body weight per minute).
The data were analysed by ANOVA followed by the Tukey-Kramer's post hoc test, Student's t-test, or non-parametric Wilcoxon-Mann-Whitney U test, as appropriate. Data are presented as means±SEM.

[1] = system: Methyl-CpG-binding protein 2 (Mecp) null mice; assay: Rett's syndrome model; plethysmography in Mecp2 null mice; format: in vivo; conditions: tianeptine 10 mg/kg i.p. in saline, 5.6 Hz before treatment, p=0.037, paired t test
Procedure: Methyl-CpG-binding protein 2 (Mecp) null mice were of the B6.129P2(C)-Mecp2^tm1.1Bird strain. Mice were produced and genotyped using published methods (Miralvès J, Magdeleine E, Joly E. Design of an improved set of oligonucleotide primers for genotyping MeCP2^tm1.1Bird KO mice by PCR. Mol Neurodegener. 2007; 2:16; Bissonnette J M, Knopp S J. Separate respiratory phenotypes in methyl-CpG-binding protein 2 (Mecp2) deficient mice. Pediatr Res. 2006; 59:513-518).
Breathing was recorded over a 60 min control period following drug treatment in the same way as for the respiratory depression experiments, with the same equipment and software. After the recording sessions, mice were euthanized with CO2.

CN1c2ccccc2C(NCCCCCCC(=O)O)c2ccc(Cl)cc2S1(=O)=O (centres unmarked) [tianeptine, 7-[(3-chloro-6,11-dihydro-6-methyl-dibenzo[c,f][1,2]thiazepin-11-yl)amino]heptanoic acid S,S-dioxide]
increase in the respiratory activity (conscious rats; tianeptine 2 mg/kg ip, 5 min after administration, conscious rats, p<0.05): ~30% | morphine-induced respiratory depression (conscious rats; tianeptine 2 mg/kg ip, morphine 10 mg/kg intramuscular 5 minutes after tianeptine, conscious rats): appears to prevent morphine-induced respiratory depression | increase in the respiratory activity (conscious rats; tianeptine 10 mg/kg, rats): not observed | morphine-induced respiratory depression (conscious rats; tianeptine 10 mg/kg, followed by morphine 10 mg/kg intramuscular, rats): prevented | peak dominant frequency (respiratory frequency pattern) after drug treatment [1]: 4.8 Hz
